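Compound exposure: 48 hours, 5 concentrations, 96-well plates. GI50 = concentration required for 50% inhibition of growth.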 Activity calls are given as the source filed them. No stated cut-off is given here; in the data, active = GI50 up to about 1.1 µM and inactive = higher.

Test systems include HOP-62; SK-MEL-28; SF-268; M14; A549; RPMI-8226; MCF7; ACHN; IGROV-1; BT-549; TK-10; HL-60; HOP-92; HT-29; T47D; NCI-H522; SK-MEL-5; NCI-H23; LOX IMVI; KM-20L2.
What all share (assay): NCI tumour cell line growth inhibition, 48 h

Regarding `C1CSCCCSCCCSCCCSCCCSCCCSCCCSCCCSC1`, the GI50 in the test with HOP-62, with SK-MEL-28, in the test with SF-268, in the test on M14, in the test on A549 and in the test with RPMI-8226 was > 100 µM (inactive) in each case. Further, the GI50 in the test on MCF7, in the test with ACHN, in the test on IGROV-1, in the test with BT-549, in the test with TK-10 and in the test with HL-60 was > 100 µM (inactive) each time. The GI50 is > 100 µM (inactive) with HOP-92; > 100 µM (inactive) in the test on HT-29; > 100 µM (inactive) with T47D; > 100 µM (inactive) in the test on NCI-H522; 85.9 µM (inactive) in the test on SK-MEL-5; > 100 µM (inactive) in the test on NCI-H23. Moreover, the GI50 in the test with LOX IMVI was > 100 µM (inactive).
`CSc1cc(-c2cccs2)sc1-c1cc(SC)c(-c2sc(-c3sc(-c4cccs4)cc3SC)cc2SC)s1`: the GI50 in the test on HOP-62, with SK-MEL-28, with SF-268, in the test with M14, with A549 and in the test on RPMI-8226 was > 100 µM (inactive) in each case. Besides, the GI50 with MCF7, in the test on ACHN, in the test on IGROV-1, in the test with BT-549, in the test with TK-10 and with HL-60 was > 100 µM (inactive) throughout. The GI50 in the test with HOP-92, in the test with HT-29, in the test on T47D, with NCI-H522, in the test on SK-MEL-5 and in the test on NCI-H23 was > 100 µM (inactive) each time. The GI50 in the test with LOX IMVI was > 100 µM (inactive).
As to `CC(=N/N=C/c1ccccn1)/C(C)=N/N=C(C)/C(C)=N/N=C(C)/C(C)=N/N=C(C)/C(C)=N\N=C\c1ccccn1`, the GI50 in the test with HOP-62, in the test with SK-MEL-28, in the test on SF-268, with M14, in the test on A549 and in the test with RPMI-8226 was > 100 µM (inactive) throughout. The GI50 was > 100 µM (inactive) in the test with MCF7; > 100 µM (inactive) with ACHN; > 100 µM (inactive) in the test with IGROV-1; > 100 µM (inactive) in the test on BT-549; > 100 µM (inactive) in the test on TK-10; 49.1 µM (inactive) in the test with HL-60. In addition, the GI50 in the test with HOP-92, in the test on HT-29, in the test on T47D, in the test with NCI-H522, with SK-MEL-5 and in the test with NCI-H23 was > 100 µM (inactive) throughout. Moreover, in the test with LOX IMVI, the GI50 is > 100 µM (inactive).
For the molecule `O=C(O)CCc1coc2ccc(O)cc12`, the GI50 in the test on HOP-62, with SK-MEL-28, with M14, in the test with A549, in the test with RPMI-8226 and in the test with ACHN was > 100 µM (inactive) each time. In addition, the GI50 in the test with IGROV-1 was > 100 µM (inactive); in the test on TK-10, > 100 µM (inactive); in the test on HL-60, > 100 µM (inactive); in the test with HOP-92, 75.7 µM (inactive); in the test on HT-29, > 100 µM (inactive); in the test with KM-20L2 it was > 100 µM (inactive). The GI50 with SK-MEL-5, with NCI-H23 and in the test with LOX IMVI was > 100 µM (inactive) in each case.
Regarding `C[S+]([O-])c1ncc2c(n1)-c1ccccc1OC2` (stereo not given), the GI50 with HOP-62 was > 100 µM (inactive); with SK-MEL-28, > 100 µM (inactive); in the test with SF-268, > 100 µM (inactive); in the test with M14, > 100 µM (inactive); with A549, > 100 µM (inactive); in the test with RPMI-8226, 81.8 µM (inactive). The GI50 was 38.5 µM (inactive) in the test with MCF7; 92.5 µM (inactive) in the test on ACHN; 49.1 µM (inactive) with IGROV-1; > 100 µM (inactive) in the test with BT-549; 45.7 µM (inactive) in the test on TK-10; 36.7 µM (inactive) in the test with HL-60. Further, the GI50 with HOP-92 is 49.3 µM (inactive); in the test on HT-29 it was 61.5 µM (inactive); in the test on T47D it was 35.2 µM (inactive); with NCI-H522, > 100 µM (inactive); in the test on SK-MEL-5, 78.3 µM (inactive); with NCI-H23 it was > 100 µM (inactive). In addition, the GI50 with LOX IMVI was > 100 µM (inactive).
Consider `C=C1c2ccccc2C(=O)c2c1c1c(C(=O)OC)c(O)ccc1n2Cc1ccccc1`, for which the GI50 was 0.516 µM (active) in the test on HOP-62; 0.31 µM (active) in the test on SK-MEL-28; 0.175 µM (active) in the test on SF-268; 0.314 µM (active) with M14; 1.11 µM (active) in the test with A549; 0.175 µM (active) in the test with RPMI-8226. Besides, the GI50 in the test on MCF7 is 0.249 µM (active); with ACHN it was 0.454 µM (active); in the test on IGROV-1 it was 0.234 µM (active); in the test on BT-549 it was 0.585 µM (active); with TK-10 it was 0.459 µM (active); in the test on HL-60 it was 0.265 µM (active). For the same molecule, the GI50 in the test with HOP-92 is < 0.01 µM (active); in the test on HT-29, 0.163 µM (active); in the test with T47D, 0.653 µM (active); in the test with NCI-H522, 0.237 µM (active); with SK-MEL-5, 0.7 µM (active); in the test with NCI-H23 it was 0.713 µM (active). The GI50 in the test on LOX IMVI is 0.297 µM (active).
As for `CCOC(=O)C1CCC(=O)N1C(=O)c1ccccc1Cl` (stereo not given), the GI50 in the test on HOP-62, in the test on SK-MEL-28, with SF-268, with M14, in the test with A549 and with RPMI-8226 was > 100 µM (inactive) in each case. In addition, the GI50 in the test on MCF7, in the test with ACHN, in the test with IGROV-1, with BT-549, in the test with TK-10 and with HL-60 was > 100 µM (inactive) throughout. For the same molecule, the GI50 in the test with HOP-92, in the test on HT-29, in the test on T47D, in the test on NCI-H522, with SK-MEL-5 and with NCI-H23 was > 100 µM (inactive) throughout. In addition, the GI50 in the test on LOX IMVI was > 100 µM (inactive).
For `S=c1sc2nc(Cl)nc(Cl)c2s1`, the GI50 is 19.9 µM (inactive) in the test with HOP-62; 16.1 µM (inactive) with SK-MEL-28; 14.8 µM (inactive) in the test with SF-268; 4.16 µM (inactive) with M14; 19 µM (inactive) in the test on A549; 1.68 µM (inactive) in the test with RPMI-8226. For the same molecule, the GI50 with MCF7 was 8.49 µM (inactive); in the test with ACHN, 13.9 µM (inactive); with IGROV-1, 13.8 µM (inactive); with BT-549, 8.87 µM (inactive); in the test on TK-10 it was 13.6 µM (inactive); in the test with HL-60, 0.442 µM (active). Further, the GI50 in the test with HOP-92 was 5.24 µM (inactive); with HT-29 it was 8.24 µM (inactive); in the test with T47D, 7.06 µM (inactive); in the test on NCI-H522, 6.84 µM (inactive); with SK-MEL-5 it was 8.73 µM (inactive); in the test on NCI-H23, 16.9 µM (inactive). Further, the GI50 in the test with LOX IMVI was 9.14 µM (inactive).
As to `C#CCSc1cnc2ccccc2c1Sc1c[nH]c2ccccc2c1=O`, the GI50 with HOP-62 is 26.5 µM (inactive); in the test with SK-MEL-28, 34.8 µM (inactive); in the test with SF-268, 29.9 µM (inactive); in the test on M14, 17 µM (inactive); with A549, 14.4 µM (inactive); in the test with RPMI-8226, 4.2 µM (inactive). Also, the GI50 with MCF7 is 6.82 µM (inactive); in the test with ACHN, 13.6 µM (inactive); in the test with IGROV-1 it was 3.29 µM (inactive); in the test with BT-549 it was 28.7 µM (inactive); in the test with TK-10 it was 40.2 µM (inactive); with HL-60 it was 16.6 µM (inactive). Moreover, the GI50 in the test on HOP-92 was 16.1 µM (inactive); in the test with HT-29, 21.2 µM (inactive); with T47D it was 10.9 µM (inactive); with NCI-H522 it was 6.58 µM (inactive); with SK-MEL-5, 15.6 µM (inactive); with NCI-H23 it was 15.4 µM (inactive). Moreover, the GI50 in the test on LOX IMVI was 13.8 µM (inactive).
In the case of `O=C(N/N=C/c1ccc2c(c1)OCO2)Nc1ccccc1Cl`, the GI50 in the test on HOP-62 was 2.61 µM (inactive); in the test on SK-MEL-28, 9.95 µM (inactive); with SF-268, 3.76 µM (inactive); in the test with M14, 0.671 µM (active); in the test with A549, 3.33 µM (inactive); with RPMI-8226, 1.48 µM (inactive). Moreover, the GI50 with MCF7 is 0.469 µM (active); with ACHN, 7.43 µM (inactive); in the test with IGROV-1 it was 0.622 µM (active); with BT-549 it was 1.85 µM (inactive); with TK-10, 2.15 µM (inactive); with HL-60 it was 0.565 µM (active). Further, the GI50 with HOP-92 is 6.24 µM (inactive); in the test on HT-29, 0.8 µM (active); in the test with T47D, 2.08 µM (inactive); in the test on NCI-H522 it was 0.233 µM (active); in the test on SK-MEL-5 it was 1.35 µM (inactive); in the test on NCI-H23, 1.66 µM (inactive). For the same molecule, in the test with LOX IMVI, the GI50 is 2.95 µM (inactive).
For `COC(=O)CNC(=O)CCC(C)[C@H]1CCC2C3C(C[C@H](OC(C)=O)[C@@]21C)[C@@]1(C)CCC2(C[C@H]1C[C@H]3OC(C)=O)OOC1(CCCCC1)OO2` (stereo not given in full), the GI50 is 0.579 µM (active) in the test on HOP-62; 9.29 µM (inactive) in the test on SK-MEL-28; 1.75 µM (inactive) in the test with SF-268; 3.91 µM (inactive) in the test on M14; 1.72 µM (inactive) with A549; 1.75 µM (inactive) in the test on RPMI-8226. Moreover, the GI50 in the test on MCF7 is 3.26 µM (inactive); in the test with ACHN, 1.89 µM (inactive); in the test on IGROV-1, 1.4 µM (inactive); in the test on BT-549, 1.69 µM (inactive); in the test with TK-10 it was 11.2 µM (inactive); in the test with HL-60, 2.36 µM (inactive). In addition, the GI50 in the test with HOP-92 was 1.08 µM (active); with HT-29, 2.69 µM (inactive); in the test on T47D, 2.58 µM (inactive); in the test with NCI-H522, 1.48 µM (inactive); in the test with SK-MEL-5 it was 2.63 µM (inactive); in the test with NCI-H23, 1.91 µM (inactive). For the same molecule, the GI50 in the test with LOX IMVI is 2.12 µM (inactive).

(Values after ChEMBL document CHEMBL1201862, “PubChem BioAssay data set” (2004).)
